A short description of assay [1]: Total Oxygen radical Scavenging Capacity (TOSC) assay. The following applies: for total antioxidant activities, times higher than Trolox: in momordica cochinchinensis aril; for antioxidant capacity, higher than Trolox: in the gac oil. Type of assay: biochemical. As for the experimental part:
(§1) Antioxidant capacities were assessed by the overall abilities of the compounds to suppress peroxyl radicals generated from the thermal homolysis of 2,2′-azobis-amidinopropane. Stock solutions of all samples were diluted 1/100 and 1/1000. […] However, at a lower concentration (dilution of 1/1000), the gac aril provided the highest peroxyl radical-scavenging capacity, 1.8 and 1.3 times as much as β-carotene and lycopene, respectively (FIG. 1b).
Using the TOSC method, it was apparent that total antioxidant activities of beta-carotene and lycopene in momordica cochinchinensis aril were high (2 times higher than Trolox), an analogue of Vitamin E commonly used a gold standard. The comparative TOSC values (cTOSC) of gac (Redmelon™) aril maintains 5.4 times greater than Trolox. […] The results are summarized below in the following table

A short description of assay [2]: Oxygen Radical Absorbance capacity (ORAC) assay. In kind it is biochemical. The following applies: 1/100 dilution of stock solutions; FIG. 1a. As for the experimental part: Those figures depict graphical comparison of the antioxidant values of momordica cochichinchinensis (gac) aril, β-carotene, and lycopene using […] (ORAC) assay, ORAC values were obtained using a Trolox standard linear regression line.
as §1

The record followed here is patent US8668942B2, “Skin anti-oxidant enhancing formulation and associated method” (Fishrock Laboratories, Inc., priority 2012, dated 2014).

For the molecule `Cc1c(C)c2c(c(C)c1O)CCC(C)(C(=O)O)O2` (stereo not drawn) [Trolox], the cTOSC in assay [1] (comparative TOSC value) is on record as 1.00. For the same molecule, in assay [1] (peroxyl radical scavenging capacity), the rTOSC was determined as 4.51.

Consider `CC1=C(/C=C/C(C)=C/C=C/C(C)=C/C=C/C=C(C)/C=C/C=C(C)/C=C/C2=C(C)CCCC2(C)C)C(C)(C)CCC1` [beta-carotene], for which, in assay [1] (relative to Trolox), the “total antioxidant activities, times higher than Trolox” value was 2 times and the “antioxidant capacity, higher than Trolox” value is recorded as 50%.

As for `CC(C)=CCC/C(C)=C/C=C/C(C)=C/C=C/C(C)=C/C=C/C=C(C)/C=C/C=C(C)/C=C/C=C(\C)CCC=C(C)C` [lycopene], in assay [2], the “ability to scavenge peroxyl radicals, times as much as the Redmelon™ aril” value stood at 1.4 times and the “ability to scavenge peroxyl radicals, times as much as β-carotene” value is 2.4 times. Moreover, in assay [1] (relative to Trolox), the “total antioxidant activities, times higher than Trolox” value amounted to 2 times; the “antioxidant capacity, higher than Trolox” value turned out to be 50%; the “peroxyl radical scavenging capacity (rTOSC), times greater than Trolox” value came to 24 times.
